Results: patent US7173062B2, “Method for the improvement of skin wrinkles using retinyl retinoate” (Enprani Co., Ltd., priority 2001, dated 2007)
Entries after “also recorded” stand apart in the source; their conditions may differ.

Columns and labels:
[1] = molecular target: T1, RAR α (Homo sapiens, UniProt P10276); experiment: Activity for RAR α (CAT reporter in HaCaT cells); type: cell-based; conditions: 1 μM, CAT ELISA
T1 construct: expressed in transfected cells; host or cells: HaCaT
T1 sequence (P10276 1-462): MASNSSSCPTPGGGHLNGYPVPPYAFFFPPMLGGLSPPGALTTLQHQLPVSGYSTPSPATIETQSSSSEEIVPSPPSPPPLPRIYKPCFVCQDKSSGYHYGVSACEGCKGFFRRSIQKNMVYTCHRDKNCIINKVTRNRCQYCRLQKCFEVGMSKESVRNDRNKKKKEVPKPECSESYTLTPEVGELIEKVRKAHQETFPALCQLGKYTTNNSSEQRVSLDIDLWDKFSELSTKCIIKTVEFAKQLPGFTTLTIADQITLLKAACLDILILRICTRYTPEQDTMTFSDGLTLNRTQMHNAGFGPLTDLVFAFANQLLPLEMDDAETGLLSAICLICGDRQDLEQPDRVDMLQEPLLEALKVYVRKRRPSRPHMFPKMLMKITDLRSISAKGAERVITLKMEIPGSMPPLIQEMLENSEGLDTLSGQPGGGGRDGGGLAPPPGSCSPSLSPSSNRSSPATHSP
Method: (§1) The effect of the retinol derivatives on the activity of RAR and RXR was examined as follows.
(§2) Experimental procedure: Recombinant gene of DR5-tk-CAT or DR1-tk-CAT comprising DR1 or DR5 as a response element of RAR/RXR, […] promoter, and CAT (chloramphenicol acetyl transferase) was suitably combined with a plasmid DNA that expresses RAR α, β, γ and cotransfected to HaCaT cell line, a skin cancer cell line, with Lipofectamin (GibcoBRL). Then, the cells were incubated in DMEM/10% FBS medium for 1 day, retinol derivative was added in a concentration of 1 μM, and the cells were incubated again for 1 day under the condition of 5% CO2 and 37° C. The cells were washed with phosphate-buffered salione (PBS). Proteins were extracted from each cell, the activity of β-galactosidase was assayed, and the amount of protein was measured to determine the transfection efficiency. Further, the degree of transcription for RAR or RXR was analyzed by CAT ELISA (Roche Molecular Biochemicals, Mannheim, Germany).

[2] = Photostability test (UV-A 356 nm, 1H NMR); type: physicochemical; set-up: key: 4 = No qualitative change in ^1H NMR spectrum; 3 = Minute noise but no qualitative change in ^1H NMR spectrum; 2 = Clear noise and some qualitative change in ^1H NMR spectrum; 1 = Qualitative confirmation is difficult in ^1H NMR spectrum; conditions: room temperature
Method: In order to examine photostability of the compound of formula (1) compared with retinol, 10 mg of sample was irradiated by UV-A light (wavelength 356 nm) using a Spectroline (Model CM-10; Fluorescence analysis cabinet; Spectronics Corporation, Westbury, N.Y., USA) at certain intervals of time at room temperature.

[3] = Thermal stability test (quantitative HPLC); type: physicochemical; conditions: humidity 58%, in % (unit assumed)
Method: In order to compare thermal stability of the compound of formula (1) with retinol, phase stability for 1 month in a thermohygrostat (humidity: 58%) of room temperature, 40° C., and 4° C. was examined by a quantitative HPLC analysis under the following condition.
1) Column: Capcellpak UG 120 (5 μm, 4.6 mm*150 mm, shiseido, Japan)
3) Detector: UV(PDA 326 nm), • Fluorescence: Ex: 326nrm, Em: 460 nm

[4] = test system: Normal human fibroblast (Newborn, passage: 6); experiment: Collagen synthesis test (Sircol collagen assay); type: cell-based; conditions: for increasing effect for collagen synthesis over control group treated only by DMEM: 2 days
Method: The effect for collagen synthesis of the compound of formula (1) was examined by using retinol, retinoic acid, and derivatives thereof as comparison compounds to confirm its utility as inhibitors for skin aging as follows. The results are represented in FIG. 2.
Cell: Normal human fibroblast (Newborn, passage: 6)
Medium: DMEM containing 10% FBS→DMEM free of FBS was used when cells were treated with samples.
Concentration: A range of concentration where the samples exert no toxicity to the cells was selected through a cell toxicity test ? 0.000001%, 0.00001%(w/v)
Procedure: 1×10^5 cells/well were inoculated into a 6-well plate. Cells were cultured to show about 79–80% confluent. Cells were treated with test samples and incubated for 2 days (FBS was not added to the medium when cells were treated with samples). After 2 days, cell medium and cells were separated from each other and respectively stored in a refrigerator. The cell extract was subjected to the protein analysis (BCA Protein Assay Kit, PIERCE 23225) and the medium was subjected to collagen analysis.
After the medium was removed, a small amount of PBS was added. Cells were scraped with a scraper. 1N NaOH (100 μl) and distilled water (400 μl) were added and the resulting mixture was allowed to stand overnight. Then, the protein analysis was carried out.
Collagen analysis: Analysis kit (Sircol Collagen assay kit—a dye that specifically combines with soluble collagen is used)
1.0 ml of Sircol Dye Reagent was introduced into each tube and mixed for 30 minutes. The mixture was centrifuged for 10 minutes at 5,000 g or more and the supernatant was removed. 1.0 ml Sircol Alkali Reagent was added, slowly mixed, and absorbance at 540 nm was measured. The amount of protein was converted into the value of collagen analysis (see: Mechanism of Aging and Development 73, 179–187, 1994).
After the above experiment, the increasing ratio for collagen synthesis of the test group over the control group treated only by DMEM was depicted in FIG. 2.

[5] = molecular target: T2, RAR γ (Homo sapiens, UniProt P13631); experiment: Activity for RAR γ (CAT reporter in HaCaT cells); type: cell-based; conditions: 1 μM, CAT ELISA
T2 construct: expressed in transfected cells; host or cells: HaCaT
T2 sequence (P13631 1-454): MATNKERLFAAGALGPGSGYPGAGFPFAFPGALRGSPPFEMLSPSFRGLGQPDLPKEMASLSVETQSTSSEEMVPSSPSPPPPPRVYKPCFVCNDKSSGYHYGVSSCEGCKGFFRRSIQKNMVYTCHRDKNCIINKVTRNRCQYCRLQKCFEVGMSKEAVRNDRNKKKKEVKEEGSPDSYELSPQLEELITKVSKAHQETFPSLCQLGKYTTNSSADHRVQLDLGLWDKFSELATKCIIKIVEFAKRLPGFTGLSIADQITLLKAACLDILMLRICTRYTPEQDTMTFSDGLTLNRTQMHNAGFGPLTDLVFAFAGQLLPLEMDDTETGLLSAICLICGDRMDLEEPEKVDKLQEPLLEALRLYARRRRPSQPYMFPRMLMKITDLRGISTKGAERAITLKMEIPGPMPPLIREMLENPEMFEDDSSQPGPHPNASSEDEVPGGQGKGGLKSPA
Method: as §1, §2

[6] = Control = 1.0, listed as compound of formula (1)

Question: Which “Relative activity against RAR α” value ([1]; Control = 1.0) does the source give for CC1=C(/C=C/C(C)=C/C=C/C(C)=C/COC(=O)/C=C(C)/C=C/C=C(C)/C=C/C2=C(C)CCCC2(C)C)C(C)(C)CCC1 [Compound of formula (1), Retinyl retinoate] here?
Answer: 22.5

Question: What about the “Relative activity against RAR α” value [1, 6] of the same compound?
Answer: relatively specific and high activity

Question: What about the Photostability level ([2]; After 0 hour, 10 mg sample) of the same compound?
Answer: 4

Question: And the Photostability level ([2]; After 2 hours)?
Answer: 4

Question: What about the Photostability level ([2]; After 12 hours) of the same compound?
Answer: 3

Question: And the Photostability level ([2]; After 24 hours)?
Answer: 3

Question: And the Photostability level ([2]; After 48 hours)?
Answer: 3

Question: What about the “Thermal stability (amount by quantitative HPLC)” value (“Thermal stability” for short) ([3]; After 1 week, 4° C.) of the same compound?
Answer: 100

Question: And the “Thermal stability” value ([3]; After 1 week, 40° C.)?
Answer: 74.46

Question: And the “Thermal stability” value ([3]; After 1 week, r.t.)?
Answer: 92.77

Question: And the “Thermal stability” value ([3]; After 2 weeks, 4° C.)?
Answer: 100

Question: What about the “Thermal stability” value ([3]; After 2 weeks, 40° C.) of the same compound?
Answer: 70.25

Question: What about the “Thermal stability” value ([3]; After 2 weeks, r.t.) of the same compound?
Answer: 90.45

Question: And the “Thermal stability” value ([3]; After 4 weeks, 4° C.)?
Answer: 99.65

Question: What about the “Thermal stability” value ([3]; After 4 weeks, 40° C.) of the same compound?
Answer: 68.23

Question: And the “Thermal stability” value ([3]; After 4 weeks, r.t.)?
Answer: 89.21

Question: And the “Thermal stability” value ([3]; Initial value, 4° C.)?
Answer: 100

Question: And the “Thermal stability” value ([3]; Initial value, 40° C.)?
Answer: 100

Question: What about the “Thermal stability” value ([3]; Initial value, r.t.) of the same compound?
Answer: 100

Question: What about the “effect for collagen synthesis (FIG. 2), comparison in words” value ([4]; 0.000001%, 0.00001%(w/v), human fibroblast) of the same compound?
Answer: superior effect for collagen synthesis at low concentration to retinol or retinoic acid

Question: And the “collagen synthesis effect relative to retinol at the same concentration” value ([4]; 10^−6% (W/V))?
Answer: about 10 times

Question: What about the “increasing effect for collagen synthesis over control group treated only by DMEM” value ([4]; 10^−6% (W/V), human fibroblast) of the same compound?
Answer: 41.29%

Question: And the “Relative activity against RAR γ” value ([5]; Control = 1.0)?
Answer: 1.1

Question: What about the “Relative activity against RAR γ” value [5, 6] of the same compound?
Answer: lower activity than retinoic acid but higher one than retinol; also recorded: low activity

Question: For CC1=C(/C=C/C(C)=C/C=C/C(C)=C/CO)C(C)(C)CCC1 [Retinol], which “Relative activity against RAR α” value ([1]; Control = 1.0) is on record?
Answer: 27.5

Question: And the Photostability level ([2]; After 0 hour, 10 mg sample)?
Answer: 4

Question: What about the Photostability level ([2]; After 2 hours) of the same compound?
Answer: 3

Question: And the Photostability level ([2]; After 12 hours)?
Answer: 2

Question: What about the Photostability level ([2]; After 24 hours) of the same compound?
Answer: 1

Question: What about the Photostability level ([2]; After 48 hours) of the same compound?
Answer: 1

Question: And the “Thermal stability” value ([3]; After 1 week, 4° C.)?
Answer: 100

Question: What about the “Thermal stability” value ([3]; After 1 week, 40° C.) of the same compound?
Answer: 56.08

Question: What about the “Thermal stability” value ([3]; After 1 week, r.t.) of the same compound?
Answer: 74.27

Question: What about the “Thermal stability” value ([3]; After 2 weeks, 4° C.) of the same compound?
Answer: 98.23

Question: What about the “Thermal stability” value ([3]; After 2 weeks, 40° C.) of the same compound?
Answer: 43.26

Question: What about the “Thermal stability” value ([3]; After 2 weeks, r.t.) of the same compound?
Answer: 65.23

Question: And the “Thermal stability” value ([3]; After 4 weeks, 4° C.)?
Answer: 95.52

Question: What about the “Thermal stability” value ([3]; After 4 weeks, 40° C.) of the same compound?
Answer: 34.51

Question: What about the “Thermal stability” value ([3]; After 4 weeks, r.t.) of the same compound?
Answer: 52.23

Question: What about the “Thermal stability” value ([3]; Initial value, 4° C.) of the same compound?
Answer: 100

Question: What about the “Thermal stability” value ([3]; Initial value, 40° C.) of the same compound?
Answer: 100

Question: And the “Thermal stability” value ([3]; Initial value, r.t.)?
Answer: 100

Question: And the “increasing effect for collagen synthesis over control group treated only by DMEM” value ([4]; 10^−6% (W/V), human fibroblast)?
Answer: 4.94%

Question: And the “Relative activity against RAR γ” value ([5]; Control = 1.0)?
Answer: 0.9
